Residues, ends and D or L forms follow the SMILES beside them.

Assay [1] concerns S. Typhimurium (14028) Δphd-doc::Km strains coexpressing DocSTm. The assay can be described thus: Growth rescue experiment in S. Typhimurium. It counts as cell-based. To be noted: coexpression of DocSTm (pBAD33, arabinose) and Phd construct (pCA24N, basal expression); OD600 over time, M9 minimal medium; average of three independent experiments. The method, then:
The cotransformations above were also performed with an empty pBAD33 plasmid, as a control for the absence of DocSTm expression.
For the growth rescue experiment, overnight (1% tryptone, 0.5% yeast extract, 0.5% NaCl, 1% glucose, 100 μg/mL of carbenicillin, and 34 μg/mL of chloramphenicol) cultures of the generated S. Typhimurium strains were diluted to an OD600 of approximately 0.006 into fresh M9 minimal medium supplemented with 0.5% or 1% arabinose, 0.4% glycerol, 0.4% casamino acids, 100 μg/mL of carbenicillin, and 34 μg/mL of chloramphenicol. Cell growth at a given time was monitored at OD600 with a Genesys 140 Visible Spectrophotometer (Thermo Scientific).

In assay [2] the test system is DocSTm. The assay can be described thus: Surface plasmon resonance binding to immobilised Doc. The conditions noted are these: for fold decrease in affinity (given as decrease/loss in Kd) compared with peptide 1: SPR Kd relative to wild-type peptide 1. Also noted: species or system S. Typhimurium. An outline of the steps: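 Doc captured on an NTA chip at 22 °C in 10 mM HEPES, 500 mM NaCl, 50 μM EDTA, 0.005% TWEEN 20, pH 8.0. Analytes injected as 80 s pulses at 30 μL/min in multicycle or single-cycle kinetics.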

Assay [3] relates to DocSTm. The assay can be described thus: Differential scanning fluorimetry (thermal stabilisation of Doc). It counts as binding, S. Typhimurium. The conditions noted are these: for melting temperature shift ΔTm: DSF, DocSTm 5 μM, analyte 50 μM, Tm with analyte minus Tm of free DocSTm (42.9 ± 0.9 °C), SYPRO Orange, 20 mM K2HPO4, 50 mM (NH4)2SO4, pH 8.0, triplicate; for Average Tm / Tm: DocSTm 5 µM + 50 µM binder; for Average Tm: average of 3 replicates. The method in brief:
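Thermal shift of 5 μM Doc in 20 mM K2HPO4, 50 mM (NH4)2SO4, pH 8.0 with 3× SYPRO Orange, heated from 25 to 95 °C in a qPCR instrument, in triplicate. Melting temperatures from Boltzmann sigmoid fits of the transition region.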

Regarding `CSCC[C@H](NC(=O)[C@H](C)NC(=O)[C@H](C)NC(=O)[C@H](C)NC(=O)[C@H](Cc1ccccc1)NC(=O)[C@H](CCC(=O)O)NC(=O)[C@H](CC(=O)O)NC(=O)[C@H](CC(=O)O)NC(=O)[C@H](CCSC)NC(=O)[C@H](Cc1c[nH]c2ccccc12)NC(C)=O)C(=O)N[C@@H](C)C(=O)N[C@H](C(=O)N[C@@H](Cc1c[nH]cn1)C(=O)NCC(=O)N[C@@H](CC(N)=O)C(=O)N[C@@H](CCC(=O)O)C(=O)N[C@@H](CC(C)C)C(=O)N[C@@H](CCCNC(=N)N)C(=O)N[C@@H](CCC(=O)O)C(=O)N[C@@H](CC(C)C)C(=O)N[C@@H](C)C(=O)N[C@@H](CC(=O)O)C(=O)N[C@@H](CCCCN)C(=O)O)C(C)C` [peptide 7] (Ac-WMDDEFAAAMAVHGNELRELADK-OH; C-terminus assumed), the “rescue of Salmonella growth from DocSTm-induced growth inhibition (in words)” value in assay [1] is “unable to rescue growth”. The “fold decrease in affinity (given as decrease/loss in Kd) compared with peptide 1” value in assay [2] is roughly 300 fold. Moreover, the Kd in assay [2] (SPR multicycle, steady-state fit, replicate 1) was 25.4 ± 3 nM; in assay [2] (SPR multicycle, steady-state fit, replicate 2), 19.4 ± 2.2 nM; in assay [2] (SPR multicycle, steady-state fit, replicate 3), 15.1 ± 0.09 nM; in assay [2] (SPR, multicycle kinetics, steady-state 1:1 fit, mean ± SD of 3 replicates), 19.9 ± 5.18 nM. The “melting temperature shift ΔTm” value in assay [3] came to 15.5 ± 1.5 °C. Besides, the “Average Tm” value in assay [3] was found to be 58.4 ± 1.2 °C. Moreover, the results for the Tm in assay [3] (replicate 1), in assay [3] (replicate 2) and in assay [3] (replicate 3) were 59.7 °C, 57.7 °C and 57.6 °C, respectively.
In the case of `CC[C@H](C)[C@H](NC(=O)[C@H](C)NC(=O)[C@H](C)NC(=O)[C@H](Cc1ccccc1)NC(=O)[C@H](CCC(=O)O)NC(=O)[C@H](CC(=O)O)NC(=O)[C@H](CC(=O)O)NC(=O)[C@H](CCSC)NC(=O)[C@H](Cc1c[nH]c2ccccc12)NC(C)=O)C(=O)N[C@@H](C)C(=O)N[C@@H](C)C(=O)N[C@H](C(=O)N[C@@H](Cc1c[nH]cn1)C(=O)NCC(=O)N[C@@H](CC(N)=O)C(=O)N[C@@H](CCC(=O)O)C(=O)N[C@@H](CC(C)C)C(=O)N[C@@H](CCCNC(=N)N)C(=O)N[C@@H](CCC(=O)O)C(=O)N[C@@H](CC(C)C)C(=O)N[C@@H](C)C(=O)N[C@@H](CC(=O)O)C(=O)N[C@@H](CCCCN)C(=O)O)C(C)C` [peptide 8] (Ac-WMDDEFAAIAAVHGNELRELADK-OH; C-terminus assumed), the “rescue of Salmonella growth from DocSTm-induced growth inhibition (in words)” value in assay [1] is listed as “fully rescued Salmonella growth after 18 h of culture”. In assay [2], the “fold decrease in affinity (given as decrease/loss in Kd) compared with peptide 1” value is 8- to 30 fold. For the same compound, the Kd in assay [2] (SPR kinetic fit, replicate 1) was 0.67 nM; in assay [2] (SPR kinetic fit, replicate 2), 0.611 nM; in assay [2] (SPR kinetic fit, replicate 3) it was 0.485 nM; in assay [2] (SPR, kinetic fit, KD calculated from mean koff and kon, SD propagated, 22 °C, pH 8.0), 0.553 ± 0.397 nM. Also, in assay [2] (SPR, 1:1 kinetic fit, 22 °C, pH 8.0, mean ± SD of at least 3 replicates), the “koff × 10^-6” value was 1223 ± 504 ×10^-6 s-1. Also, in assay [2] (SPR, 1:1 kinetic fit, single-cycle kinetics (multicycle for PhdSTm1-73), 22 °C, pH 8.0, mean ± SD of at least 3 replicates), the “kon × 10^6” value is given as 2.221 ± 1.307 ×10^6 M-1 s-1. In addition, the “Half-life of the complex” value in assay [2] (t1/2 = ln2 / koff) stood at 9.6 ± 36 min. In addition, in assay [3], the “melting temperature shift ΔTm” value is 20.8 ± 1.0 °C. Besides, the “Average Tm” value in assay [3] stood at 63.7 ± 0.4 °C. Also, the Tm in assay [3] (replicate 1) was 64.1 °C; in assay [3] (replicate 2), 63.3 °C; in assay [3] (replicate 3), 63.7 °C.

Values taken from article PMC9207808 (ACS Chemical Biology, 2022).
